Data taken from ChEMBL document CHEMBL5550112, “Development of a fluorescent ligand that can illuminate nuclear G-quadruplexes and modulate oncogene expression” (Bioorg Med Chem, 2024).
Active and inactive are the calls of the source. The calls are words filed in the database; no cut-off is given here.

Assays:
Quadruplex DNA [1] = assay: Binding affinity to G-quadruplex DNA in human MDA-MB-231 cells at 2 uM incubated for 30 mins by Hoechst 33342 staining based confocal microscopic analysis; format: cell-based
Quadruplex DNA [2] = assay: Binding affinity to Parallel c-MYC G-quadruplex DNA (unknown origin) assessed as increase in fluorescence intensity at 5 uM by fluorescence spectrophotometric analysis; format: nucleic-acid assay
Quadruplex DNA [3] = assay: Binding affinity to Parallel KRAS G-quadruplex DNA (unknown origin) assessed as increase in fluorescence intensity at 5 uM by fluorescence spectrophotometric analysis; format: nucleic-acid assay
Quadruplex DNA [4] = assay: Binding affinity to Parallel PS2M G-quadruplex DNA (unknown origin) assessed as increase in fluorescence intensity at 5 uM by fluorescence spectrophotometric analysis; format: nucleic-acid assay
Quadruplex DNA [5] = assay: Binding affinity to Parallel CHL1 G-quadruplex DNA (unknown origin) assessed as increase in fluorescence intensity at 5 uM by fluorescence spectrophotometric analysis; format: nucleic-acid assay
Quadruplex DNA [6] = assay: Binding affinity to Parallel c-KIT2 G-quadruplex DNA (unknown origin) assessed as increase in fluorescence intensity at 5 uM by fluorescence spectrophotometric analysis; format: nucleic-acid assay
Quadruplex DNA [7] = assay: Binding affinity to Parallel VAV1 G-quadruplex DNA (unknown origin) assessed as increase in fluorescence intensity at 5 uM by fluorescence spectrophotometric analysis; format: nucleic-acid assay
Quadruplex DNA [8] = assay: Binding affinity to Parallel BCL2 G-quadruplex DNA (unknown origin) assessed as increase in fluorescence intensity at 5 uM by fluorescence spectrophotometric analysis; format: nucleic-acid assay
Quadruplex DNA [9] = assay: Binding affinity to Parallel EAD G-quadruplex DNA (unknown origin) assessed as increase in fluorescence intensity at 5 uM by fluorescence spectrophotometric analysis; format: nucleic-acid assay
Quadruplex DNA [10] = assay: Binding affinity to Parallel c-KIT1 G-quadruplex DNA (unknown origin) assessed as increase in fluorescence intensity at 5 uM by fluorescence spectrophotometric analysis; format: nucleic-acid assay
Quadruplex DNA [11] = assay: Binding affinity to Antiparallel HRAS G-quadruplex DNA (unknown origin) assessed as increase in fluorescence intensity at 5 uM by fluorescence spectrophotometric analysis; format: nucleic-acid assay
Quadruplex DNA [12] = assay: Binding affinity to Antiparallel c-KIT G-quadruplex DNA (unknown origin) assessed as increase in fluorescence intensity at 5 uM by fluorescence spectrophotometric analysis; format: nucleic-acid assay
Quadruplex DNA [13] = assay: Binding affinity to Antiparallel Bm G-quadruplex DNA (unknown origin) assessed as increase in fluorescence intensity at 5 uM by fluorescence spectrophotometric analysis; format: nucleic-acid assay
Quadruplex DNA [14] = assay: Binding affinity to Antiparallel TBA G-quadruplex DNA (unknown origin) assessed as increase in fluorescence intensity at 5 uM by fluorescence spectrophotometric analysis; format: nucleic-acid assay
Quadruplex DNA [15] = assay: Binding affinity to Antiparallel ODN G-quadruplex DNA (unknown origin) assessed as increase in fluorescence intensity at 5 uM by fluorescence spectrophotometric analysis; format: nucleic-acid assay
Calf thymus DNA = assay: Binding affinity to calf thymus DNA (unknown origin) assessed as increase in fluorescence intensity at 5 uM by fluorescence spectrophotometric analysis; details: Bos taurus
DNA [16] = assay: Binding affinity to Duplex DNA (unknown origin) assessed as increase in fluorescence intensity at 5 uM by fluorescence spectrophotometric analysis; format: nucleic-acid assay
Albumin = Albumin (Bos taurus, UniProt P02769); assay: Binding affinity to bovine serum albumin assessed as increase in fluorescence intensity at 5 uM by fluorescence spectrophotometric analysis; format: cell-free; details: cattle
Albumin, sequence (P02769 whole entry): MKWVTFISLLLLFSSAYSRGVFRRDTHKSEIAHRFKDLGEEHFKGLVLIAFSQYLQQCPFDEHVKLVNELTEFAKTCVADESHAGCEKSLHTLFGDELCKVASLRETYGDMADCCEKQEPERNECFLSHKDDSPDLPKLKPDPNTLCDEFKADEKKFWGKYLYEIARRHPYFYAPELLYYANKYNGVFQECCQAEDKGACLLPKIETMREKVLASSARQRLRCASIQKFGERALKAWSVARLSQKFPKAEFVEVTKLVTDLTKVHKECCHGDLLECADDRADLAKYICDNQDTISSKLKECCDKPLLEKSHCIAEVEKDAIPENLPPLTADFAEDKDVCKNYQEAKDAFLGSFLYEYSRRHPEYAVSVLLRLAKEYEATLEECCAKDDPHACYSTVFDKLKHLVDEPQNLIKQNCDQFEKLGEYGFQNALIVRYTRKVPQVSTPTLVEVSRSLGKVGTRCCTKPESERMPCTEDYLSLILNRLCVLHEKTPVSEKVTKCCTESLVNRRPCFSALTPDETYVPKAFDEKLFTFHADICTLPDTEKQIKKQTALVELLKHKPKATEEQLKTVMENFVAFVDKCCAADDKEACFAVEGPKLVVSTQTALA

Quadruplex DNA [17] = assay: Binding affinity to c-MYC G-quadruplex DNA (unknown origin) assessed as decrease in absorption band by measuring red shift at 5 uM by absorption spectra analysis; format: nucleic-acid assay
Quadruplex DNA [18] = assay: Binding affinity to KRAS G-quadruplex DNA (unknown origin) assessed as decrease in absorption band by measuring red shift at 5 uM by absorption spectra analysis; format: nucleic-acid assay
DNA [19] = assay: Binding affinity to Duplex DNA (unknown origin) assessed as hypochromic red shift at 5 uM by absorption spectra analysis; format: nucleic-acid assay
Quadruplex DNA [20] = assay: Binding affinity to c-MYC G-quadruplex DNA (unknown origin) assessed as increase in fluorescence by measuring red shift at 5 uM by fluorescence titration spectra analysis; format: nucleic-acid assay
Quadruplex DNA [21] = assay: Binding affinity to KRAS G-quadruplex DNA (unknown origin) assessed as increase in fluorescence by measuring red shift at 5 uM by fluorescence titration spectra analysis; format: nucleic-acid assay
DNA [22] = assay: Binding affinity to Duplex DNA (unknown origin) assessed as increase in fluorescence by measuring red shift at 5 uM by fluorescence titration spectra analysis; format: nucleic-acid assay
Quadruplex DNA [23] = assay: Binding affinity to c-MYC G-quadruplex DNA (unknown origin) assessed as dissociation constant by fluorescence spectrophotometric analysis; format: nucleic-acid assay
Quadruplex DNA [24] = assay: Binding affinity to KRAS G-quadruplex DNA (unknown origin) assessed as dissociation constant by fluorescence spectrophotometric analysis; format: nucleic-acid assay
Quadruplex DNA [25] = assay: Binding affinity to c-MYC G-quadruplex DNA (unknown origin) assessed as fluorescence quantum yield by fluorescence spectrophotometric analysis; format: nucleic-acid assay
Quadruplex DNA [26] = assay: Binding affinity to KRAS G-quadruplex DNA (unknown origin) assessed as fluorescence quantum yield by fluorescence spectrophotometric analysis; format: nucleic-acid assay
DNA [27] = assay: Binding affinity to Duplex DNA (unknown origin) assessed as fluorescence quantum yield by fluorescence spectrophotometric analysis; format: nucleic-acid assay
Quadruplex DNA [28] = assay: Stabilization of FAM/TAMRA-labelled c-MYC G-quadruplex DNA (unknown origin) assessed as change in melting temperature in presence of duplex DNA by FRET assay; format: nucleic-acid assay
Quadruplex DNA [29] = assay: Stabilization of FAM/TAMRA-labelled KRAS G-quadruplex DNA (unknown origin) assessed as change in melting temperature in presence of duplex DNA by FRET assay; format: nucleic-acid assay
DNA [30] = assay: Binding affinity to Duplex DNA (unknown origin) assessed as dissociation constant by fluorescence spectrophotometric analysis; format: nucleic-acid assay
Quadruplex DNA [31] = assay: Binding affinity to 5'-Cy5-labelled c-MYC G-quadruplex DNA (unknown origin) assessed as decrease in Cy5 fluorescence upto 5 uM by fluorescence quenching analysis; format: nucleic-acid assay

- Activity (Quadruplex DNA [2]): Active
- Activity (Quadruplex DNA [3]): Active
- Activity (Quadruplex DNA [4]): Active
- Activity (Quadruplex DNA [5]): Active
- Activity (Quadruplex DNA [6]): Active
- Activity (Quadruplex DNA [7]): Active
- Activity (Quadruplex DNA [8]): Active
- Activity (Quadruplex DNA [9]): Active
- Activity (Quadruplex DNA [10]): Active
- Activity (Quadruplex DNA [11]): Active
- Activity (Quadruplex DNA [12]): Active
- Activity (Quadruplex DNA [13]): Active
- Activity (Quadruplex DNA [14]): Active
- Activity (Quadruplex DNA [15]): Active
- Activity (DNA [16]): inactive
- Activity (Albumin): Not Active
- Activity (Quadruplex DNA [17]): Active
- Activity (Quadruplex DNA [18]): Active
- Activity (DNA [19]): Active
- Activity (Quadruplex DNA [20]): Active
- Activity (Quadruplex DNA [21]): Active
- Activity (DNA [22]): Active
- Kd (Quadruplex DNA [23]): 700 nM
- Kd (Quadruplex DNA [24]): 500 nM
- Activity (Quadruplex DNA [25]): 0.3
- Activity (Quadruplex DNA [26]): 0.19
- Activity (DNA [27]): 0.03
- ΔTm (Quadruplex DNA [28]): 8.1 °C
- ΔTm (Quadruplex DNA [29]): 14 °C
- Kd (DNA [30]): 5300 nM
- Activity (Quadruplex DNA [31]): Active
Structure (SMILES): CCn1c2ccccc2c2cc(/C=C/c3sc4ccccc4[n+]3C)ccc21.[I-]
- Activity (Quadruplex DNA [1]): Active
- Activity (Calf thymus DNA): Active
